Test system: p53, Mdm2, p21, PCNA, Bax and Bcl-2
Test: Gene expression assay (RT-PCR, Western blot) in rat liver, promotion stage
Assay type: in vivo
Experimental: Expression patterns, at both mRNA and protein levels, of selected genes related to apoptosis and tumors were examined to investigate the mechanism by which sinigrin prevent tumor occurrence.
RNA was extracted from 300 μg of rat liver and was measured as described in foregoing examples Three micrograms of total RNA, 1 μl of an oligo dT primer and certain volume of RNase-Free H2O were mixed into a total volume of 12 μl. The mixture was incubated at 70° C. for 10 minutes and immediately chilled on ice. Four microliters of 5× First Stand Buffer, 2 μl of 0.1M DTT, 1 μl of 10 mM dNTP mix, and 1 μl of SuperScript II were added to each tube and mixed. The tubes were incubated at 42° C. for 50 minutes followed by 70° C. for 15 minutes before chilling on ice. The cDNA was then ready for PCR amplification.
The PCR reactions were performed in a final volume of 20 μl in a Gene Amp® PCR system. The PCR reaction mix contained 1 μl of cDNA synthesized previously, 2 μl 10×PCR Buffer, 0.4 μl 10 mM dNTP mix, 1.2 μl 25 mM MgCl2, 1 μl 10 mM primer mix, 0.2 μl recombinant Taq polymerase, and 14.2 μl autoclaved ddH2O.
For synthesis of β-actin gene as the internal control and Mdm2 gene, the PCR mixture was incubated at 94° C. for 5 minutes followed by 30 cycles of amplification. Each cycle consisted of 45 seconds of denaturation at 94° C., 45 seconds of annealing at 55° C. and 30 seconds of extension at 72° C. After all cycles were completed, a final extension step at 72° C. for 10 minutes was performed. The PCR products were ready for gel electrophoresis.
For synthesis of p53, the number of cycle was enhanced to 35, the annealing temperature was enhanced to 58° C., and the extension time was extended to 1.5 minutes, respectively.
The intensity of the PCR products was analyzed by the software Image J. The band intensity of the β-actin gene was measured as an internal control. The ratio of the band intensities of the target gene to the β-actin gene was used to compare the mRNA level of each gene between different treatment groups.
Three hundred micrograms of each liver sample were homogenized in the Solution C at 1 g/ml using a glass homogenizer on ice. The homogenate was transferred to a microcentrifuge tube and centrifuged at 13,000 rpm for 20 minutes. The supernatant was collected and equal volume of 2× sample loading dye was added to each sample. The samples were stored at −20° C. The protein was used for immunodetection of the expression level of Bax, Bcl-2, PCNA and p21.
Three hundreds micrograms of each liver sample were homogenized in Solution A at 1 g/ml using the glass homogenizer on ice. The homogenate was transferred into a microcentrifuge tube and centrifuged at 3,000 rpm for 5 minutes to spin down the unbroken tissue. The supernatant was collected and incubated on ice for 5 minutes and then centrifuged at 5,000 rpm for 5 minutes. The supernatant was discarded and the pellet was lysed by 100 μl Solution B. The lysing process lasted for 20 minutes on ice. After incubation, the solution was centrifuged at 12,000 rpm for 15 seconds to spin down the cell debris. The supernatant was collected and equal volume of 2× sample loading dye was added to each sample. The samples were ready for immunodetection of the expression level of p53 and mdm2.
The Mini-PROTEAN II electrophoresis cell (Bio-Rad) was used for sodium dodecyl sulfate poly acrylamide gel electrophoreses (SDS-PAGE). The gel mold was assembled according to the protocol. About 3 ml water was poured into the set mold to test for leakage. After discarding the water, resolving gel solution was prepared according to the established protocol. A 10% acrylamide gel was used for the separation. The resolving gel was poured into the mold at a proper volume (about ⅔ full). After the gel solution was poured into the mold, a thin layer of distilled water was poured on the gel solution to ensure the surface of the gel was smooth. The gel was allowed to polymerize for 30 minutes. […]

For `C=CC/C(=N/OS(=O)(=O)[O-])S[C@@H]1OC(CO)[C@@H](O)C(O)C1O.[K+]` (stereo partly drawn) [SIN, sinigrin], the “Mdm2 mRNA expression” value (RT-PCR) was “decreased back to levels near the negative control”, the “p53 mRNA expression” value (RT-PCR) was “decreased back to levels near the negative control” and the “Bax protein expression (decreased in positive group)” value (Western blot) was “reversed”. The “Bcl-2 protein expression (increased in positive group)” value (Western blot) was “reversed”, the “Mdm2 protein expression (increase in positive control)” value (Western blot) was “partially reversed” and the “PCNA protein expression (increased in positive group)” value (Western blot) was “reversed”. For the same compound, the p21 protein expression (Western blot) was “much higher than that of the negative control and the positive control”, the “total p53 protein level” value (Western blot) was “significantly increased” and the “wild type p53 protein level” value (Western blot) was “restored its expression to a level even higher than the negative control”.

— US20100120703A1, “COMPOSITIONS AND METHODS FOR TREATING CANCER” (priority 2007, published 2010)
